Assay results as given in publication PMC10648349, “Aromatic Diboronic Acids as Effective KPC/AmpC Inhibitors” (Molecules, 2023).
In brackets after ≈: the same amount, converted by molar mass. Where two headings read alike, the source gives them in different places.

What was measured:
[1] = tested on: C. krusei ATCC 6258; experiment: antifungal activity (disc-diffusion, MIC, MFC); type: cell-based, Candida krusei; conditions: Pichia kudriavzevii, ATCC6258; for MIC: fluconazole by Etest; for zone of inhibition at 0.4 mg/disc: 0.4 mg per disc, 9 mm disc (fluconazole 0.025 mg, 6 mm disc), - no zone, read-out: Diameter of inhibition zone
In short: (§1)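 Following CLSI and EUCAST guidance, DMSO-dissolved compounds were tested by broth MIC, by minimal bactericidal (bacteria) or fungicidal (yeast) concentration, and by disc diffusion at 0.4 mg per disc. Comparators were fluconazole (yeasts), linezolid (Gram-positives) and nitrofurantoin (Gram-negative rods).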

[2] = tested on: C. parapsilosis ATCC 22019; experiment: antifungal activity (disc-diffusion, MIC, MFC); type: cell-based, Candida parapsilosis; conditions: Lodderomyces parapsilosis, ATCC22019; for MIC: fluconazole by Etest; for zone of inhibition at 0.4 mg/disc: 0.4 mg per disc, 9 mm disc (fluconazole 0.025 mg, 6 mm disc), - no zone, read-out: Diameter of inhibition zone
In short: as §1

[3] = MTT-based viability assay; type: cell-based; conditions: human
In short: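 MRC-5 human fibroblasts grown in MEME with 10% FBS at 37 °C, 5% CO2, tested by MTT with absorbance read at 570 nm. Viability given as percent of untreated control cells, in triplicate.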

[4] = tested on: C. guilliermondii IBA 155; experiment: antifungal activity (disc-diffusion, MIC, MFC); type: cell-based, Candida guilliermondii; conditions: Meyerozyma guilliermondii, IBA155; for MIC: fluconazole by Etest; for zone of inhibition at 0.4 mg/disc: 0.4 mg per disc, 9 mm disc (fluconazole 0.025 mg, 6 mm disc), - no zone, read-out: Diameter of inhibition zone
In short: as §1

[5] = tested on: K. pneumoniae ATCC BAA 1705 KPC-2-positive; experiment: combination disc test CDT-KPC; type: cell-based; conditions: Klebsiella pneumoniae, BAA1705, read-out: Diameter of inhibition zone, MEM-10 disc with agent; for zone of inhibition at 100 µg/disc: agent 0.1 mg per disc
[6] = tested on: E. coli 77 CMY-2-positive; experiment: combination disc test CDT-AmpC; type: cell-based; conditions: Escherichia coli, read-out: Diameter of inhibition zone, CAZ-30 disc with agent; for zone of inhibition at 100 µg/disc: agent 0.1 mg per disc
[7] = tested on: P. aeruginosa MUW 700 cAmpC-positive; experiment: checkerboard microdilution, antibiotic plus tested agent; type: cell-based, Pseudomonas aeruginosa
In short: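 β-lactam 1–64 mg/L × agent/PBA 4–16 mg/L checkerboard; meropenem vs carbapenemase producers, ceftazidime vs AmpC producer; imipenem, ertapenem added for selected agents. Readout: combination MICs, FICI (average and lowest); off-scale MICs taken as next doubling.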

[8] = tested on: P. aeruginosa MUW 700 cAmpC-positive; experiment: combination disc test CDT-AmpC; type: cell-based; conditions: Pseudomonas aeruginosa, read-out: Diameter of inhibition zone, CAZ-30 disc with agent; for zone of inhibition at 100 µg/disc: agent 0.1 mg per disc
[9] = tested on: K. pneumoniae ATCC BAA-1705 KPC-2(+); experiment: MIC of tested agent alone, microdilution; type: cell-based; conditions: Klebsiella pneumoniae, ATCCBAA1705; read-out: MIC of agent alone
In short: (§2)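 Broth microdilution checkerboard: β-lactam in seven two-fold dilutions (1–64 mg/L) against tested agent or PBA in three two-fold dilutions (4–16 mg/L). Antibiotic MICs were read at each agent level, with agent-alone MICs run in parallel by microdilution.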

[10] = tested on: E. coli 76 KPC-2(+); experiment: MIC of tested agent alone, microdilution; type: cell-based; conditions: Escherichia coli; read-out: MIC of agent alone
In short: as §2

[11] = tested on: P. aeruginosa MUW 700 AmpC(+); experiment: MIC of tested agent alone, microdilution; type: cell-based; conditions: Pseudomonas aeruginosa; read-out: MIC of agent alone
In short: as §2

[12] = tested on: K. pneumoniae 83 KPC-3(+), CTX-M-3(+); experiment: MIC of tested agent alone, microdilution; type: cell-based; conditions: Klebsiella pneumoniae; read-out: MIC of agent alone
In short: as §2

[13] = tested on: E. coli 77 CMY-2(+); experiment: MIC of tested agent alone, microdilution; type: cell-based; conditions: Escherichia coli; read-out: MIC of agent alone
In short: as §2

[14] = tested on: K. pneumoniae 81 KPC-3(+); experiment: MIC of tested agent alone, microdilution; type: cell-based; conditions: Klebsiella pneumoniae; read-out: MIC of agent alone
In short: as §2

[15] = tested on: C. tropicalis IBA 171; experiment: antifungal activity (disc-diffusion, MIC, MFC); type: cell-based; conditions: Candida tropicalis, IBA171; for MIC: fluconazole by Etest
In short: as §1

[16] = tested on: S. cerevisiae ATCC 9763; experiment: antifungal activity (disc-diffusion, MIC, MFC); type: cell-based; conditions: Saccharomyces cerevisiae, ATCC9763; for MIC: fluconazole by Etest; for zone of inhibition at 0.4 mg/disc: 0.4 mg per disc, 9 mm disc (fluconazole 0.025 mg, 6 mm disc), - no zone, read-out: Diameter of inhibition zone
In short: as §1

[17] = tested on: C. tropicalis ATCC 750; experiment: antifungal activity (disc-diffusion, MIC, MFC); type: cell-based; conditions: Candida tropicalis, ATCC750; for MIC: fluconazole by Etest
In short: as §1

[18] = tested on: C. albicans ATCC 90028; experiment: antifungal activity (disc-diffusion, MIC, MFC); type: cell-based; conditions: Candida albicans, ATCC90028; for MIC: fluconazole by Etest
In short: as §1

[19] = MRC-5 human fibroblasts, 12.5 mg/L, 72 h, read-out: Viability of MRC-5 cells (% of viable cells ± SD)
[20] = MRC-5 human fibroblasts, 25 mg/L, 72 h, read-out: Viability of MRC-5 cells (% of viable cells ± SD)
[21] = MRC-5 human fibroblasts, 50 mg/L, 72 h, read-out: Viability of MRC-5 cells (% of viable cells ± SD)
[22] = 0.4 mg per disc, 9 mm disc (fluconazole 0.025 mg, 6 mm disc), - no zone, read-out: Diameter of inhibition zone

| Compound | MIC [1] | MIC [2] | viability at 72 h, 12.5 mg/L [3, 19] | viability at 72 h, 25 mg/L [3, 20] | viability at 72 h, 50 mg/L [3, 21] | MIC [4] | Average FICI with ceftazidime [7] | Interpretation of the average FICI with ceftazidime [7] | Interpretation of the lowest FICI with ceftazidime [7] | The lowest FICI with ceftazidime [7] | MIC [9] | MIC [10] | MIC [11] | MIC [12] | MIC [13] | MIC [14] | MIC [15] | MIC [16] | MIC [17] | MIC [18] | also measured |
| --- | --- | --- | --- | --- | --- | --- | --- | --- | --- | --- | --- | --- | --- | --- | --- | --- | --- | --- | --- | --- | --- |
| OB(O)c1ccc(B(O)O)c(F)c1F [1c] | 400 µg/mL (≈ 1980 µM) | > 400 µg/mL | 112 ± 3.8% | 103 ± 3% | 96.7 ± 3.3% | > 400 µg/mL | 0.32 | S (FICI ≤ 0.5, synergy) | S (FICI ≤ 0.5, synergy) | 0.17 | 200 µg/mL | 200 µg/mL | 400 µg/mL | 200 µg/mL | 200 µg/mL | 200 µg/mL | > 400 µg/mL | 200 µg/mL (≈ 991 µM) | > 400 µg/mL | > 400 µg/mL | zone of inhibition at 100 µg/disc [5]: 6 mm; zone of inhibition at 100 µg/disc [6]: 20 mm; zone of inhibition at 100 µg/disc [8]: 18 mm |
| OB(O)c1ccc(B(O)O)cc1 [1a] | > 400 µg/mL | > 400 µg/mL | – | – | – | > 400 µg/mL | 0.16 | S (FICI ≤ 0.5, synergy) | S (FICI ≤ 0.5, synergy) | 0.08 | > 400 µg/mL | > 400 µg/mL | > 400 µg/mL | > 400 µg/mL | > 400 µg/mL | > 400 µg/mL | > 400 µg/mL | 400 µg/mL (≈ 2410 µM) | > 400 µg/mL | > 400 µg/mL | viability at 72 h, 16 mg/L ([3]; MRC-5 human fibroblasts, 16 mg/L, 72 h, read-out: Viability of MRC-5 cells (% of viable cells ± SD)): 113 ± 12.5%; viability at 72 h, 32 mg/L ([3]; MRC-5 human fibroblasts, 32 mg/L, 72 h, read-out: Viability of MRC-5 cells (% of viable cells ± SD)): 103 ± 11.8%; viability at 72 h, 64 mg/L ([3]; MRC-5 human fibroblasts, 64 mg/L, 72 h, read-out: Viability of MRC-5 cells (% of viable cells ± SD)): 89.9 ± 11.4%; zone of inhibition at 300 µg/disc ([5]; agent 0.3 mg per disc): 19 mm; zone of inhibition at 300 µg/disc ([6]; agent 0.3 mg per disc): 21 mm; zone of inhibition at 300 µg/disc ([8]; agent 0.3 mg per disc): 23 mm |
| OB(O)c1cc(F)ccc1F [7a, 2,5-difluorophenylboronic acid] | 50 µg/mL (≈ 317 µM) | 25 µg/mL (≈ 158 µM) | – | – | – | 25 µg/mL (≈ 158 µM) | 0.17 | S (FICI ≤ 0.5, synergy) | S (FICI ≤ 0.5, synergy) | 0.10 | 100 µg/mL | 100 µg/mL | 400 µg/mL | 100 µg/mL | 100 µg/mL | 200 µg/mL | 25 µg/mL (≈ 158 µM) | 50 µg/mL (≈ 317 µM) | 50 µg/mL (≈ 317 µM) | 25 µg/mL (≈ 158 µM) | zone of inhibition at 0.4 mg/disc [1]: 15 mm; zone of inhibition at 0.4 mg/disc [2]: 21 mm; viability at 72 h, 12.5 mg/L [3]: 83 ± 2.9%; viability at 72 h, 25 mg/L [3]: 79.9 ± 3.7%; viability at 72 h, 50 mg/L [3]: 67.3 ± 3.1%; zone of inhibition at 0.4 mg/disc [4]: 33 mm; zone of inhibition at 30 µg/disc ([5]; agent 0.03 mg per disc): 13 mm; zone of inhibition at 30 µg/disc ([6]; agent 0.03 mg per disc): 19 mm; zone of inhibition at 30 µg/disc ([8]; agent 0.03 mg per disc): 17 mm; zone of inhibition at 0.4 mg/disc [15, 22]: 25 mm; zone of inhibition at 0.4 mg/disc [16]: 18 mm; zone of inhibition at 0.4 mg/disc [17, 22]: 21 mm; zone of inhibition at 0.4 mg/disc [18, 22]: 29 mm |
| OB(O)c1cc(F)c(B(O)O)cc1F [1e] | > 400 µg/mL | > 400 µg/mL | 107 ± 3.3% | 105 ± 10% | 117 ± 4.6% | > 400 µg/mL | 0.38 | S (FICI ≤ 0.5, synergy) | S (FICI ≤ 0.5, synergy) | 0.29 | 200 µg/mL | 100 µg/mL | 200 µg/mL | 200 µg/mL | 100 µg/mL | 200 µg/mL | > 400 µg/mL | 400 µg/mL (≈ 1980 µM) | > 400 µg/mL | > 400 µg/mL | zone of inhibition at 0.4 mg/disc [1]: 16 mm; zone of inhibition at 0.4 mg/disc [2]: 15 mm; zone of inhibition at 0.4 mg/disc [4]: 16 mm; zone of inhibition at 100 µg/disc [5]: 11 mm; zone of inhibition at 100 µg/disc [6]: 20 mm; zone of inhibition at 100 µg/disc [8]: 18 mm; zone of inhibition at 0.4 mg/disc [16]: 13 mm |
| OB(O)c1cc(F)c(B(O)O)c(F)c1 [1d] | 200 µg/mL (≈ 991 µM) | 200 µg/mL (≈ 991 µM) | 111.6 ± 1.1% | 104 ± 8.9% | 83.3 ± 1.2% | 200 µg/mL (≈ 991 µM) | 0.43 | S (FICI ≤ 0.5, synergy) | S (FICI ≤ 0.5, synergy) | 0.27 | 400 µg/mL | 400 µg/mL | > 400 µg/mL | 400 µg/mL | 400 µg/mL | 400 µg/mL | 200 µg/mL (≈ 991 µM) | 200 µg/mL (≈ 991 µM) | 400 µg/mL (≈ 1980 µM) | 200 µg/mL (≈ 991 µM) | zone of inhibition at 0.4 mg/disc [2]: 14 mm; zone of inhibition at 0.4 mg/disc [4]: 16 mm; zone of inhibition at 100 µg/disc [5]: 12 mm; zone of inhibition at 100 µg/disc [6]: 20 mm; zone of inhibition at 100 µg/disc [8]: 17 mm; zone of inhibition at 0.4 mg/disc [16]: 13 mm |
| OB(O)c1cc(B(O)O)c(F)cc1F [2c] | > 400 µg/mL | > 400 µg/mL | 89.1 ± 0.5% | 83.6 ± 2.7% | 63.8 ± 2.5% | > 400 µg/mL | 0.22 | S (FICI ≤ 0.5, synergy) | S (FICI ≤ 0.5, synergy) | 0.15 | 400 µg/mL | 200 µg/mL | > 400 µg/mL | 200 µg/mL | 200 µg/mL | 200 µg/mL | > 400 µg/mL | > 400 µg/mL | > 400 µg/mL | > 400 µg/mL | zone of inhibition at 100 µg/disc [5]: 6 mm; zone of inhibition at 100 µg/disc [6]: 19 mm; zone of inhibition at 100 µg/disc [8]: 20 mm |
